Laboratory results from the supplement of paper PMC10307832.

Assays:
Assay in all cases: relative viability (nuclei count vs DMSO), 5 days (fraction); higher = more cells survive
LCLC-97TM1 = tested on: LCLC-97TM1
How it was run: (§1)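 Relative viability divides the nuclei count in treated wells by that in vehicle wells. Lung cancer cell lines were seeded in 1536-well plates, dosed by pin tool the next day, and fixed and stained after 5 days in one step with final 0.05% Triton X-100, 1% formaldehyde and 1 ug/ml Hoechst. Dosing was a single drug or a fixed anchor-drug dose plus five library-drug doses (not always all listed) in √10 steps, and values are medians of duplicate plates imaged at 4×.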

HOP-62 = tested on: HOP-62
How it was run: as §1

NCI-H2405 = tested on: NCI-H2405
How it was run: as §1

NCI-H522 = tested on: NCI-H522
How it was run: as §1

LU99A = tested on: LU99A
How it was run: as §1

HCC-827 = tested on: HCC-827
How it was run: as §1

LXF-289 = tested on: LXF-289
How it was run: as §1

EKVX = tested on: EKVX
How it was run: as §1

NCI-H2170 = tested on: NCI-H2170
How it was run: as §1

NCI-H3122 = tested on: NCI-H3122
How it was run: as §1

PC-3 [JPC-3] = tested on: PC-3 [JPC-3]
How it was run: as §1

NCI-H441 = tested on: NCI-H441
How it was run: as §1

NCI-H1355 = tested on: NCI-H1355
How it was run: as §1

ChaGo-K-1 = tested on: ChaGo-K-1
How it was run: as §1

NCI-H1993 = tested on: NCI-H1993
How it was run: as §1

LK-2 = tested on: LK-2
How it was run: as §1

EPLC-272H = tested on: EPLC-272H
How it was run: as §1

H3255 = tested on: H3255
How it was run: as §1

`Cc1csc(=NC2CCCCC2)n1/N=C/c1ccc(O)c(O)c1O` [MIM1] + NC(=O)Nc1cc(-c2cccc(F)c2)sc1C(=O)N[C@H]1CCCNC1 [AZD7762] (partner 0.2 µM) gave a relative viability (LCLC-97TM1; first compound 0.2 µM) of 0.231, a relative viability (LCLC-97TM1; first compound 0.6325 µM) of 0.243 and a relative viability (LCLC-97TM1; first compound 2 µM) of 0.196. For the same compound, the relative viability (LCLC-97TM1; first compound 6.325 µM) was 0.145, the relative viability (LCLC-97TM1; first compound 20 µM) was 0.0668 and the relative viability (HOP-62; first compound 0.2 µM) was 0.557. For the same compound, the relative viability (HOP-62; first compound 0.6325 µM) was 0.662, the relative viability (HOP-62; first compound 2 µM) was 0.756 and the relative viability (HOP-62; first compound 6.325 µM) was 0.506. For the same compound, the relative viability (HOP-62; first compound 20 µM) was 0.0832, the relative viability (NCI-H2405; first compound 0.2 µM) was 0.835 and the relative viability (NCI-H2405; first compound 0.6325 µM) was 0.806. It also gave a relative viability (NCI-H2405; first compound 2 µM) of 0.772, a relative viability (NCI-H2405; first compound 6.325 µM) of 0.667 and a relative viability (NCI-H2405; first compound 20 µM) of 0.849. For the same compound, the relative viability (NCI-H522; first compound 0.2 µM) was 0.891, the relative viability (NCI-H522; first compound 0.6325 µM) was 0.957 and the relative viability (NCI-H522; first compound 2 µM) was 0.824. The relative viability (NCI-H522; first compound 6.325 µM) was 0.78, the relative viability (NCI-H522; first compound 20 µM) was 0.511 and the relative viability (LU99A; first compound 0.2 µM) was 0.364. The relative viability (LU99A; first compound 0.6325 µM) was 0.265, the relative viability (LU99A; first compound 2 µM) was 0.258 and the relative viability (LU99A; first compound 6.325 µM) was 0.218. It also gave a relative viability (LU99A; first compound 20 µM) of 0.0782, a relative viability (HCC-827; first compound 0.2 µM) of 0.245 and a relative viability (HCC-827; first compound 0.6325 µM) of 0.235. For the same compound, the relative viability (HCC-827; first compound 2 µM) was 0.165, the relative viability (HCC-827; first compound 6.325 µM) was 0.189 and the relative viability (HCC-827; first compound 20 µM) was 0.304. It also gave a relative viability (LXF-289; first compound 0.2 µM) of 1.07, a relative viability (LXF-289; first compound 0.6325 µM) of 0.905 and a relative viability (LXF-289; first compound 2 µM) of 1.12. It also gave a relative viability (LXF-289; first compound 6.325 µM) of 0.85, a relative viability (LXF-289; first compound 20 µM) of 0.378 and a relative viability (EKVX; first compound 0.2 µM) of 0.697. For the same compound, the relative viability (EKVX; first compound 0.6325 µM) was 0.616, the relative viability (EKVX; first compound 2 µM) was 0.625 and the relative viability (EKVX; first compound 6.325 µM) was 0.599. For the same compound, the relative viability (EKVX; first compound 20 µM) was 0.44, the relative viability (NCI-H2170; first compound 0.2 µM) was 0.857 and the relative viability (NCI-H2170; first compound 0.6325 µM) was 0.826. It also gave a relative viability (NCI-H2170; first compound 2 µM) of 0.759, a relative viability (NCI-H2170; first compound 6.325 µM) of 0.368 and a relative viability (NCI-H2170; first compound 20 µM) of 0.158. For the same compound, the relative viability (NCI-H3122; first compound 0.2 µM) was 0.945, the relative viability (NCI-H3122; first compound 0.6325 µM) was 0.978 and the relative viability (NCI-H3122; first compound 2 µM) was 0.973. It also gave a relative viability (NCI-H3122; first compound 6.325 µM) of 0.472, a relative viability (NCI-H3122; first compound 20 µM) of 0.19 and a relative viability (PC-3 [JPC-3]; first compound 0.2 µM) of 0.899. It also gave a relative viability (PC-3 [JPC-3]; first compound 0.6325 µM) of 0.801, a relative viability (PC-3 [JPC-3]; first compound 2 µM) of 0.719 and a relative viability (PC-3 [JPC-3]; first compound 6.325 µM) of 0.724. For the same compound, the relative viability (PC-3 [JPC-3]; first compound 20 µM) was 0.751, the relative viability (NCI-H441; first compound 0.2 µM) was 1.16 and the relative viability (NCI-H441; first compound 0.6325 µM) was 1.09. The relative viability (NCI-H441; first compound 2 µM) was 1.17, the relative viability (NCI-H441; first compound 6.325 µM) was 0.674 and the relative viability (NCI-H441; first compound 20 µM) was 0.386. The relative viability (NCI-H1355; first compound 0.2 µM) was 0.802, the relative viability (NCI-H1355; first compound 0.6325 µM) was 0.69 and the relative viability (NCI-H1355; first compound 2 µM) was 0.814. For the same compound, the relative viability (NCI-H1355; first compound 6.325 µM) was 0.529, the relative viability (NCI-H1355; first compound 20 µM) was 0.673 and the relative viability (ChaGo-K-1; first compound 0.2 µM) was 0.869. For the same compound, the relative viability (ChaGo-K-1; first compound 0.6325 µM) was 0.883, the relative viability (ChaGo-K-1; first compound 2 µM) was 0.907 and the relative viability (ChaGo-K-1; first compound 6.325 µM) was 0.596. It also gave a relative viability (ChaGo-K-1; first compound 20 µM) of 0.248, a relative viability (NCI-H1993; first compound 0.2 µM) of 0.704 and a relative viability (NCI-H1993; first compound 0.6325 µM) of 0.761. It also gave a relative viability (NCI-H1993; first compound 2 µM) of 0.73, a relative viability (NCI-H1993; first compound 6.325 µM) of 0.569 and a relative viability (NCI-H1993; first compound 20 µM) of 0.35. The relative viability (LK-2; first compound 0.2 µM) was 0.423, the relative viability (LK-2; first compound 0.6325 µM) was 0.287 and the relative viability (LK-2; first compound 2 µM) was 0.333. The relative viability (LK-2; first compound 6.325 µM) was 0.324, the relative viability (LK-2; first compound 20 µM) was 0.25 and the relative viability (EPLC-272H; first compound 0.2 µM) was 0.224. It also gave a relative viability (EPLC-272H; first compound 0.6325 µM) of 0.305, a relative viability (EPLC-272H; first compound 2 µM) of 0.208 and a relative viability (EPLC-272H; first compound 6.325 µM) of 0.245. It also gave a relative viability (EPLC-272H; first compound 20 µM) of 0.106, a relative viability (H3255; first compound 0.2 µM) of 0.863 and a relative viability (H3255; first compound 0.6325 µM) of 0.85. For the same compound, the relative viability (H3255; first compound 2 µM) was 0.783, the relative viability (H3255; first compound 6.325 µM) was 0.571 and the relative viability (H3255; first compound 20 µM) was 0.371.
